# Data from the kinase profiling compilation of Christmann-Franck et al. (2016).
# What was measured:
# Experiment in all cases: KINOMEscan competition binding
# Conditions in all cases: compound 10.0 µM
# [1] = target: MYO3B (human) (UniProt Q8WXR4)
# [2] = target: ULK1 (human) (UniProt O75385)
# [3] = target: BRSK2 (human) (UniProt Q8IWQ3)
# [4] = target: PI4KB (human) (UniProt Q9UBF8)
# [5] = target: CDK14 (human) (UniProt O94921)
# [6] = target: TYRO3 (human) (UniProt Q06418)
# [7] = target: CSNK1A1 (human) (UniProt P48729)
# [8] = target: RAF1 (human) (UniProt P04049)
# [9] = target: CIT (human) (UniProt O14578)
# [10] = target: STK32A (human) (UniProt Q8WU08)
# Sequence of STK32A (human) (Q8WU08 whole entry, looked up): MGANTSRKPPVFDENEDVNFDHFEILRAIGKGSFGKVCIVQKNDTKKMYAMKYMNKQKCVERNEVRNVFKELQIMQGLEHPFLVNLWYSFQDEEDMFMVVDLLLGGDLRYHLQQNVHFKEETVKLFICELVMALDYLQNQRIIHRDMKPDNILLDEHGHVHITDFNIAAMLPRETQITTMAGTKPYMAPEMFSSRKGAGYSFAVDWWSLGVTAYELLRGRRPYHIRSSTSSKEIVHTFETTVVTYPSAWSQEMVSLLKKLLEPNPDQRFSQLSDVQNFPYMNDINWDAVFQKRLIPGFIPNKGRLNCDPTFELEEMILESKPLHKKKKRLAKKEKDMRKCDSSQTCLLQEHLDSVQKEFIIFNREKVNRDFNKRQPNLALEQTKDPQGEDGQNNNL
# [11] = target: PLK3 (human) (UniProt Q9H4B4)
# [12] = target: STK33 (human) (UniProt Q9BYT3)
# [13] = target: TNK2 (human) (UniProt Q07912)
# [14] = target: ADCK3 (human) (UniProt Q8NI60)
# [15] = target: CDK18 (human) (UniProt Q07002)
# [16] = target: PDGFRB (human) (UniProt P09619)
# [17] = target: MAP3K7 (human) (UniProt O43318)
# [18] = target: MAP3K6 (human) (UniProt O95382)
# Sequence of MAP3K6 (human) (O95382 whole entry, looked up): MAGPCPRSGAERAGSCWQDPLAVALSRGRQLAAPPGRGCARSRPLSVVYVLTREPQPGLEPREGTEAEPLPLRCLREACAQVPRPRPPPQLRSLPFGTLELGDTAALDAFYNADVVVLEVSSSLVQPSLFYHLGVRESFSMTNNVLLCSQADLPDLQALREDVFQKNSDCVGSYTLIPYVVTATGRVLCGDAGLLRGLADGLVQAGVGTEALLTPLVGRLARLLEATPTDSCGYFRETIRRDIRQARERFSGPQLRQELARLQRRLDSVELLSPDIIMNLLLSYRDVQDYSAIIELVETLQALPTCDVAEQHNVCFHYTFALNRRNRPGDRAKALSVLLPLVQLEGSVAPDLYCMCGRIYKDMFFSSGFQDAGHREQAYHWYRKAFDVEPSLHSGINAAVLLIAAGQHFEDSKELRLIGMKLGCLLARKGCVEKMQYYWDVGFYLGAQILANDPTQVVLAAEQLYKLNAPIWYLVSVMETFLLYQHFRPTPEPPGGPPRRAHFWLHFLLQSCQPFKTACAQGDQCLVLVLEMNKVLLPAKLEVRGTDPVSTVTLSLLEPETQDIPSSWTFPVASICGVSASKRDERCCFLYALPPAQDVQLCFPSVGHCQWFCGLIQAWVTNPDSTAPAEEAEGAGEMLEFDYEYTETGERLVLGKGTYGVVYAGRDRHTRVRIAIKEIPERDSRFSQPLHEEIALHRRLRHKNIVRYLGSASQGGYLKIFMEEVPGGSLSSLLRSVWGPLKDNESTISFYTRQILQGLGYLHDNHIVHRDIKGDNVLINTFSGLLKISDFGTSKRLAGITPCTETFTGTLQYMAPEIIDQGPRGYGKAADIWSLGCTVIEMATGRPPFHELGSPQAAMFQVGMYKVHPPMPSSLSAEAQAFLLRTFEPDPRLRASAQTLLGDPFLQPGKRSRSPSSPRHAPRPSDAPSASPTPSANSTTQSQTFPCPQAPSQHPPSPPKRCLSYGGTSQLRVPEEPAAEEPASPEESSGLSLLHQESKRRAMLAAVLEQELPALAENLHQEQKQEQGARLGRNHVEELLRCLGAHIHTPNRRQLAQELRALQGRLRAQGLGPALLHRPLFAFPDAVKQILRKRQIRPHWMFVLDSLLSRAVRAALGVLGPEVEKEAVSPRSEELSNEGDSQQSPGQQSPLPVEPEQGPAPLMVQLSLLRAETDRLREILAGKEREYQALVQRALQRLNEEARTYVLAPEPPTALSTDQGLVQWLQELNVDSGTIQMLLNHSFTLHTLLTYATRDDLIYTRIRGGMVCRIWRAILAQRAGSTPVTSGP
# [19] = target: PAK6 (human) (UniProt Q9NQU5)
# [20] = target: CDKL1 (human) (UniProt Q00532)
# [21] = target: TNNI3K (human) (UniProt Q59H18)
# [22] = target: TXK (human) (UniProt P42681)
# [23] = target: CDK16 (human) (UniProt Q00536)
# [24] = target: PIK3CB (human) (UniProt P42338)
# [25] = target: TAOK1 (human) (UniProt Q7L7X3)
# [26] = target: MAPK7 (human) (UniProt Q13164)
# [27] = target: MAK (human) (UniProt P20794)
# [28] = target: PTK6 (human) (UniProt Q13882)
# Sequence of PTK6 (human) (Q13882 whole entry, looked up): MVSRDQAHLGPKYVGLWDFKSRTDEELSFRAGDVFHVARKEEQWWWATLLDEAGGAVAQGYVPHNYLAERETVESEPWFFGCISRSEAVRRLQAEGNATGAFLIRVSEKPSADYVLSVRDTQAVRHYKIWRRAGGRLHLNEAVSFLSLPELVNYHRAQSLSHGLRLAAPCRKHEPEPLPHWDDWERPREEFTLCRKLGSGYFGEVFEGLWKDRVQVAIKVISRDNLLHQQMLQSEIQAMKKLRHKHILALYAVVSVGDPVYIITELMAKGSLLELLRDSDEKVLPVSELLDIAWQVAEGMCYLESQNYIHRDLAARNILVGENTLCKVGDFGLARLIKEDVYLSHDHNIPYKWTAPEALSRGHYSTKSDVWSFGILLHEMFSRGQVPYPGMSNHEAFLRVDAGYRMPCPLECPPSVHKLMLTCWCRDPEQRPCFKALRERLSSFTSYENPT
# [29] = target: MAPK13 (human) (UniProt O15264)
# [30] = target: CSK (human) (UniProt P41240)
# [31] = target: PIK3CA (human) (UniProt P42336)
# [32] = target: CSF1R (human) (UniProt P07333)
# [33] = target: RPS6KA1 KD2 (human) (UniProt Q15418)
# [34] = target: CSNK1D (human) (UniProt P48730)
# [35] = target: MAP2K7 (human) (UniProt O14733)
# [36] = target: EPHA5 (human) (UniProt P54756)
# [37] = target: PTK2B (human) (UniProt Q14289)
# [38] = target: MAP3K4 (human) (UniProt Q9Y6R4)
# [39] = target: CDK15 (human) (UniProt Q96Q40)
# [40] = target: MAPK14 (human) (UniProt Q16539)
# Sequence of BRSK2 (human) (Q8IWQ3 whole entry, looked up): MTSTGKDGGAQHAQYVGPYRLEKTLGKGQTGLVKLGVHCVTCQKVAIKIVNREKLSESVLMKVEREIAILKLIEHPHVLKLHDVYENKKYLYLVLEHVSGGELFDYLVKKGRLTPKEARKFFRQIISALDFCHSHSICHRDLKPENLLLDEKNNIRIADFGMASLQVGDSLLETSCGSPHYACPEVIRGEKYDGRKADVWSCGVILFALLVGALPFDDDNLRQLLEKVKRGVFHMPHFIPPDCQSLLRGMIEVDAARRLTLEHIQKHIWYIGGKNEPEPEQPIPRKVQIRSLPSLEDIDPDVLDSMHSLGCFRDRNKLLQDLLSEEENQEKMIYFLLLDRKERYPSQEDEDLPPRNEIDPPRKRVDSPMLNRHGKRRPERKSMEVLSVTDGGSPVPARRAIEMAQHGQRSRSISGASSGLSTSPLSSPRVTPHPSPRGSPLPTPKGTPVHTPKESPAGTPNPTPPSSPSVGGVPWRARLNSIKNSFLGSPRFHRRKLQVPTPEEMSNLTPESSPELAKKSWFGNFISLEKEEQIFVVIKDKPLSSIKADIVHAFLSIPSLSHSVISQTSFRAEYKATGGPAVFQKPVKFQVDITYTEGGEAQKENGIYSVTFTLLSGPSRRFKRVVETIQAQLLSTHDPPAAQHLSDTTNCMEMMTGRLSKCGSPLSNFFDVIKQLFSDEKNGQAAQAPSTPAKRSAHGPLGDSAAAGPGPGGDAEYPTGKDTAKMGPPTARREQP
# Sequence of MYO3B (human) (Q8WXR4 whole entry, looked up): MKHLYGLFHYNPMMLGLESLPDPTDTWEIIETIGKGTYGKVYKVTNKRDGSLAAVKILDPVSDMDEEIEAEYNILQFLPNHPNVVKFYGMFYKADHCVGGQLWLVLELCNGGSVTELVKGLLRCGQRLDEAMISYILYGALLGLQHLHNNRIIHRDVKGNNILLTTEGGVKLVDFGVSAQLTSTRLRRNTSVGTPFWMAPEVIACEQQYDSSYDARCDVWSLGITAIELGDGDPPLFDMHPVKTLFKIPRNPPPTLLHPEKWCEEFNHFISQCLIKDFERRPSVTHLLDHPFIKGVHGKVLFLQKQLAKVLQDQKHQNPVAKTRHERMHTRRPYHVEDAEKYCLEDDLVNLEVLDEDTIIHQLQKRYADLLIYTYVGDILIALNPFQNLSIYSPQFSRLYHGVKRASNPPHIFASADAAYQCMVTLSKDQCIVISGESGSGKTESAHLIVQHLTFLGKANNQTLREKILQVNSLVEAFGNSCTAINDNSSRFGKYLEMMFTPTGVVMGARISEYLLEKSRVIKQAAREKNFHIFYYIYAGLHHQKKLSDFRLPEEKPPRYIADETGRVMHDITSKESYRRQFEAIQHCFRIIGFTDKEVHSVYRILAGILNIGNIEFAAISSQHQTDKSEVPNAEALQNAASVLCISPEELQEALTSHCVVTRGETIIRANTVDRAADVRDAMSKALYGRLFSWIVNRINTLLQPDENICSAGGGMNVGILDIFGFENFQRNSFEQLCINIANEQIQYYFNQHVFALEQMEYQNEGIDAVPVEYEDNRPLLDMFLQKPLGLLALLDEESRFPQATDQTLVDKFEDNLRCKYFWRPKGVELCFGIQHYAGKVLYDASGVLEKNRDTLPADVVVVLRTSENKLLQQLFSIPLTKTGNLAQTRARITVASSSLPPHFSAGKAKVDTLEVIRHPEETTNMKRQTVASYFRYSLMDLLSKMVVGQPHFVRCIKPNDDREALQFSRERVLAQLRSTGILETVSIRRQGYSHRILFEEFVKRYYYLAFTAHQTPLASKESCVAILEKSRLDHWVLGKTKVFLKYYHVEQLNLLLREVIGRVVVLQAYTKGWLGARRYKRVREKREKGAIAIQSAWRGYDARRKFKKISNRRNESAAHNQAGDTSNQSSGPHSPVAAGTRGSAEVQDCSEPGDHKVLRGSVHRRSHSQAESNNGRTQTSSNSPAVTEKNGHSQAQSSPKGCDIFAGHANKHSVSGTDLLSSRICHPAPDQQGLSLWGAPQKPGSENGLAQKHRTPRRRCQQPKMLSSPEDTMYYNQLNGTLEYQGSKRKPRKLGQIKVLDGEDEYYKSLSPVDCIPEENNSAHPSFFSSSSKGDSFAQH
# Sequence of PI4KB (human) (Q9UBF8 whole entry, looked up): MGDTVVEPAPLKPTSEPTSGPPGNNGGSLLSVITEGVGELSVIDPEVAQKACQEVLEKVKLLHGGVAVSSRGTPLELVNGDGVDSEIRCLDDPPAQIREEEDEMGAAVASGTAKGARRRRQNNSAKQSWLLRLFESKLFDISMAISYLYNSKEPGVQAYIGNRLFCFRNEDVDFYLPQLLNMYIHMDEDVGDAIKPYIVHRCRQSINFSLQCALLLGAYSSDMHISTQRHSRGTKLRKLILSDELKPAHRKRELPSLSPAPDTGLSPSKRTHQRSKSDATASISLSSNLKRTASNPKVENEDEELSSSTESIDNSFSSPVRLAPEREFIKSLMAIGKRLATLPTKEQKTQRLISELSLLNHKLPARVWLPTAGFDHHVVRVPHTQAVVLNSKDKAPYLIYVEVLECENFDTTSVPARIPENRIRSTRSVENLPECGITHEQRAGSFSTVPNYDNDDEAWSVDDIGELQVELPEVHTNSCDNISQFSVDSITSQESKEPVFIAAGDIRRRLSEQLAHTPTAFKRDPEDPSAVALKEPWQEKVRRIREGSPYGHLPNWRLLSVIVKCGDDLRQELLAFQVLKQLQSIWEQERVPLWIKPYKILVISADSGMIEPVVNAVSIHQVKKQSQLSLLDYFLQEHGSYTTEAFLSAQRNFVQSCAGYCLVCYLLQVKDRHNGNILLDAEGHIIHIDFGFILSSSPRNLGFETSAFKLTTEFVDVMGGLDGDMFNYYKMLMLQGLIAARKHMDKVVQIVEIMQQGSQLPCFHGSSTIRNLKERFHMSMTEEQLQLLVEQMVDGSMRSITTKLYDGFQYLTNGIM
SMILES,"kinase still bound, per cent of control [1]","kinase still bound, per cent of control [2]","kinase still bound, per cent of control [3]","kinase still bound, per cent of control [4]","kinase still bound, per cent of control [5]","kinase still bound, per cent of control [6]","kinase still bound, per cent of control [7]","kinase still bound, per cent of control [8]","kinase still bound, per cent of control [9]","kinase still bound, per cent of control [10]","kinase still bound, per cent of control [11]","kinase still bound, per cent of control [12]","kinase still bound, per cent of control [13]","kinase still bound, per cent of control [14]","kinase still bound, per cent of control [15]","kinase still bound, per cent of control [16]","kinase still bound, per cent of control [17]","kinase still bound, per cent of control [18]","kinase still bound, per cent of control [19]","kinase still bound, per cent of control [20]",also measured
COc1cc(N2CCN(C)CC2)ccc1Nc1nc(N)c(C(=O)c2c(Cl)cccc2Cl)s1,94%,93%,87%,100%,91%,100%,84%,100%,94%,88%,88%,83%,97%,93%,78%,100%,78%,100%,55%,88%,"kinase still bound, per cent of control [21]: 82%; kinase still bound, per cent of control [22]: 100%; kinase still bound, per cent of control [23]: 62%; kinase still bound, per cent of control [24]: 100%; kinase still bound, per cent of control [25]: 52%; kinase still bound, per cent of control [26]: 14%; kinase still bound, per cent of control [27]: 26%; kinase still bound, per cent of control [28]: 100%; kinase still bound, per cent of control [29]: 63%; kinase still bound, per cent of control [30]: 90%; kinase still bound, per cent of control [31]: 99%; kinase still bound, per cent of control [32]: 67%; kinase still bound, per cent of control [33]: 58%; kinase still bound, per cent of control [34]: 100%; kinase still bound, per cent of control [35]: 100%; kinase still bound, per cent of control [36]: 100%; kinase still bound, per cent of control [37]: 42%; kinase still bound, per cent of control [38]: 100%; kinase still bound, per cent of control [39]: 26%; kinase still bound, per cent of control [40]: 94%"
C=CC(=O)Nc1cccc(Nc2nc(N[C@H]3CC[C@H](N(C)C)CC3)nc3c2ncn3C(C)C)c1,100%,0.7%,100%,100%,98%,100%,0.65%,100%,50%,89%,100%,15%,46%,87%,77%,8.4%,21%,86%,47%,100%,"kinase still bound, per cent of control [21]: 62%; kinase still bound, per cent of control [22]: 48%; kinase still bound, per cent of control [23]: 100%; kinase still bound, per cent of control [24]: 100%; kinase still bound, per cent of control [25]: 35%; kinase still bound, per cent of control [26]: 100%; kinase still bound, per cent of control [27]: 100%; kinase still bound, per cent of control [28]: 100%; kinase still bound, per cent of control [29]: 94%; kinase still bound, per cent of control [30]: 90%; kinase still bound, per cent of control [31]: 100%; kinase still bound, per cent of control [32]: 52%; kinase still bound, per cent of control [33]: 67%; kinase still bound, per cent of control [34]: 0.75%; kinase still bound, per cent of control [35]: 100%; kinase still bound, per cent of control [36]: 76%; kinase still bound, per cent of control [37]: 51%; kinase still bound, per cent of control [38]: 100%; kinase still bound, per cent of control [39]: 100%; kinase still bound, per cent of control [40]: 95%"
